Values of other authors in patent publication US20060165781A1, “Orally disintegrating tablets and process for obtaining them” (priority 2002, published 2006).

Conditions: 5 g in 150 mL of water at 20° C.

In the case of `OC[C@@H](O)[C@@H](O)[C@H](O)[C@H](O)CO` [Spray-dried mannitol, mannitol], the “Time to dissolve in water” value is listed as “approximately 5 s”.
